Publication PMC11042244 (RSC Medicinal Chemistry, 2024)

Assays:
[1] = molecular target: T1, HNE (human neutrophil elastase) (Homo sapiens, UniProt P08246); assay: HNE inhibition assay (fluorogenic substrate, enzymatic); type: biochemical; conditions: mean ± SD of three independent experiments, N.A. = no inhibitory activity at the highest concentration tested (50 μM)
T1 construct: purchased Calbiochem
T1 sequence (P08246 30-247 limits assumed): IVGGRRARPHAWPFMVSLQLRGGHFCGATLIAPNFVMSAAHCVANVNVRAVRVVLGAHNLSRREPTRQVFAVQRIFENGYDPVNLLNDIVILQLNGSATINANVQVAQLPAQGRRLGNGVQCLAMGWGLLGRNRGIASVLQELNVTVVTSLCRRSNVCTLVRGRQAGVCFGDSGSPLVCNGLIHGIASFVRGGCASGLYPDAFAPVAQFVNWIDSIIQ
Procedure: All compounds were dissolved in 100% DMSO at 5 mM stock concentrations and then subsequently diluted in 100% DMSO at various concentrations appropriate for use in the dose–response assays. […] The HNE inhibition assay was performed in black flat-bottom 96-well microtiter plates. Briefly, a buffer solution containing 200 mM Tris-HCl, pH 7.5, 0.01% bovine serum albumin, and 0.05% Tween-20 and 20 mU mL^−1 of HNE (Calbiochem) was added to wells containing different concentrations of each compound. The reaction was initiated by addition of 25 μM elastase substrate (N-methylsuccinyl-Ala-Ala-Pro-Val-7-amino-4-methylcoumarin, Calbiochem) in a final reaction volume of 100 μL per well. Kinetic measurements were obtained every 30 s for 10 min at 25 °C using a Fluoroskan Ascent FL fluorescence microplate reader (Thermo Electron, MA) with excitation and emission wavelengths of 355 and 460 nm, respectively. For all compounds tested, the concentration of inhibitor that caused 50% inhibition of the enzymatic reaction (IC50) was calculated by plotting % inhibition versus logarithm of inhibitor concentration (at least six points).[50]

[2] = system: ROS produced by PMA-stimulated murine bone marrow leukocytes; assay: Antiradical activity assay: L-012-enhanced chemiluminescence of ROS production; type: cell-based, murine (BALB/c mice)
Procedure: (§1) All animal use was conducted in accordance with a protocol approved by the Institutional Animal Care and Use Committee (IACUC) at Montana State University (protocol approval number 2022-45-IA). Bone marrow leukocytes were flushed from tibias and femurs of BALB/c mice (2-month old; 25 g body weight) or CD-1 female mice (2.5-month old; 30 g body weight) with HBSS, filtered through a 70 μm nylon cell strainer (BD Biosciences, Franklin Lakes, NJ) to remove cell clumps and bone particles.
To evaluate antiradical activity, murine bone marrow leukocytes from BALB/c mice were resuspended at 10^6 cells per ml in HBSS containing Ca^2+ and Mg^2+ (HBSS^+) and supplemented with 40 μM L-012 (Wako Chemicals, Richmond, VA),[51] since L-012-enhanced chemiluminescence represents a sensitive and reliable method for detecting ROS.[52] The cells (100 μl) were then aliquoted into wells of 96-well flat-bottom white microtiter plates containing test compounds diluted in 100 μl of HBSS^+ (final DMSO concentration of 1%). The cells were activated by adding 200 nM PMA (Sigma Chemical Co., St. Louis, MO), and luminescence was monitored for 60 min (2 min intervals) at 37 °C using a Fluoroskan Ascent FL microtiter plate reader (Thermo Electron, Waltham, MA). The compound concentration that inhibited ROS production by 50% of the PMA-stimulated response was determined by graphing the percentage inhibition of the 60 min integrated luminescence versus the logarithm of concentration of test compound. Each curve was determined using five to seven compound concentrations. Curve fitting and calculation of median effective concentration values (IC50) were performed by nonlinear regression analysis of the dose–response curves generated using Prism 10 (GraphPad Software, Inc., San Diego, CA, USA).

[3] = system: murine bone marrow leukocytes; assay: Cytotoxicity assay (CellTiter-Glo luminescent cell viability); type: cell-based, murine (CD-1 mice); conditions: for IC50: Mus musculus, Leukocyte, read-out: Cyto-toxicity IC50; for Cyto-toxicity IC50: 90 min incubation, mean ± SD of three experiments, N.A. = no cytotoxicity at the highest concentration tested (25 μM)
Procedure: as §1
The cytotoxicity of compounds for murine bone marrow leukocytes was analyzed using a CellTiter-Glo Luminescent Cell Viability Assay kit (Promega), according to the manufacturer's protocol. Briefly, bone marrow leukocytes from CD-1 mice were incubated at a density of 10^4 cells per well with different concentrations of compounds (the final concentration of DMSO was 1%) for 90 min at 37 °C and 5% CO2. Following treatment, the substrate was added to the cells, and the samples were analyzed with a FlexStation 3 microplate reader (Molecular Devices, San Jose, CA), USA.

[4] = inhibition of ROS production, 200 nM PMA, 60 min integrated luminescence, mean ± SD of three experiments, N.A. = no inhibitory activity at the highest concentration tested (50 μM)

Row | Structure (SMILES) | IC50 [1] [nM] | IC50 ([2]; Mus musculus, Leukocyte, 1 h) [nM] | IC50 [3] [nM] | IC50 [2, 4] [nM] | HNE inhibition IC50 [1] | Cyto-toxicity IC50 [3] | Antiradical activity IC50 [2, 4]
1 | CCC(=O)n1[se]c2ccccc2c1=O [4b, 2-Propionylbenzo[d][1,2]selenazol-3(2H)-one] | 2600 ± 200 | 180 ± 50 | 8500 ± 1800 |  |  |  | 
2 | CCCCC(=O)n1[se]c2ccccc2c1=O [4f, 2-pentanoylbenzo[d][1,2]selenazol-3(2H)-one] | 900 ± 200 | < 1000 | 4200 ± 900 | 700 ± 200 |  |  | 
3 | CCOC(=O)n1[se]c2ccccc2c1=O [4h, Ethyl 3-oxobenzo[d][1,2]selenazole-2(3H)-carboxylate] |  | 2500 ± 400 | 15200 ± 3200 |  | completely inactive |  | 
4 | CC(C)(C)C(=O)Oc1ccc(S(=O)(=O)Nc2ccccc2C(=O)NCC(=O)O)cc1 [Sivelestat, reference compound] |  |  |  |  |  | no cytotoxicity | 
5 | CCOC(=O)CC(=O)n1[se]c2ccccc2c1=O [4i, Ethyl 3-oxo-3-(3-oxobenzo[d][1,2]selenazol-2(3H)-yl)propanoate] |  | 1000 ± 300 | 8100 ± 1700 |  |  |  | 
6 | CC(C)C(=O)n1[se]c2ccccc2c1=O [4d, 2-Isobutyrylbenzo[d][1,2]selenazol-3(2H)-one] | 1200 ± 100 | 600 ± 200 | 9600 ± 2200 |  |  |  | 
7 | CCCC(=O)n1[se]c2ccccc2c1=O [4c, 2-Butyrylbenzo[d][1,2]selenazol-3(2H)-one] | 2400 ± 400 | 330 ± 80 | 4900 ± 600 |  |  |  | 
8 | CCCCCC(=O)n1[se]c2ccccc2c1=O [4g, 2-Hexanoylbenzo[d][1,2]selenazol-3(2H)-one] | 3000 ± 400 |  |  |  |  | no cytotoxicity | inactivity
9 | Cc1cccc(NC(=O)c2ccc(-n3[se]c4ccccc4c3=O)cc2)c1 [3d, 4-(3-Oxobenzo[d][1,2]selenazol-2(3H)-yl)-N-(m-tolyl)benzamide] |  |  |  |  |  | no cytotoxicity | inactivity
10 | COc1ccc(C(=O)n2[se]c3ccccc3c2=O)cc1 [4o, 2-(4-Methoxybenzoyl)benzo[d][1,2]selenazol-3(2H)-one] | 8700 ± 1200 |  |  |  |  |  | 
11 | CCOC(=O)c1ccc(-n2[se]c3ccccc3c2=O)cc1 [3b] |  | 1800 ± 200 |  |  |  | no cytotoxicity | 
12 | CC(=O)n1[se]c2ccccc2c1=O [4a, 2-Acetylbenzo[d][1,2]selenazol-3(2H)-one] | 7700 ± 2300 | 420 ± 60 | 10800 ± 2400 |  |  |  | 
13 | O=C(c1ccsc1)n1[se]c2ccccc2c1=O [4p, 2-(Thiophene-3-carbonyl)benzo[d][1,2]selenazol-3(2H)-one] |  | 14300 ± 2700 |  |  |  | no cytotoxicity | 
14 | CC(C)(C)C(=O)n1[se]c2ccccc2c1=O [4e, 2-Pivaloylbenzo[d][1,2]selenazol-3(2H)-one] | 1800 ± 100 | 2600 ± 400 | 13600 ± 3100 |  |  |  | 
15 | O=c1c2ccccc2[se]n1-c1ccccc1 [Ebselen (3a), 2-phenyl-1,2-benzoselenazol-3(2H)-one, reference compound] |  |  | 9500 ± 2500 |  | completely inactive |  | 
16 | O=C(C1CC1)n1[se]c2ccccc2c1=O [4j, 2-(Cyclopropanecarbonyl)benzo[d][1,2]selenazol-3(2H)-one] | 1400 ± 100 |  | 10400 ± 2400 |  |  |  | 
17 | O=C(c1ccccc1)n1[se]c2ccccc2c1=O [4m, 2-Benzoylbenzo[d][1,2]selenazol-3(2H)-one] | 2300 ± 400 |  |  |  |  |  | 
18 | O=C(NC1CC1)n1[se]c2ccccc2c1=O [compound 8, N-Cyclopropyl-3-oxobenzo[d][1,2]selenazole-2(3H)-carboxamide] |  | 900 ± 300 | 5900 ± 1600 |  | completely inactive |  | 
19 | O=C(C1CCCCC1)n1[se]c2ccccc2c1=O [4l, 2-(Cyclohexanecarbonyl)benzo[d][1,2]selenazol-3(2H)-one] | 24100 ± 4800 | 1100 ± 100 | 12400 ± 3400 |  |  |  | 
20 | O=C(C1CCCC1)n1[se]c2ccccc2c1=O [4k, 2-(Cyclopentanecarbonyl)benzo[d][1,2]selenazol-3(2H)-one] | 2800 ± 200 | 1400 ± 200 | 11800 ± 2800 |  |  |  | 
21 | CC(C)(C)C(=O)Oc1ccc(S(=O)(=O)n2[se]c3ccccc3c2=O)cc1 [compound 6, 4-[(3-Oxobenzo[d][1,2]selenazol-2(3H)-yl)sulfonyl]phenyl pivalate] | 2700 ± 500 | 6400 ± 400 |  |  |  | no cytotoxicity | 
22 | O=C(NC1CC1)c1ccc(-n2[se]c3ccccc3c2=O)cc1 [3c, N-Cyclopropyl-4-(3-oxobenzo[d][1,2]selenazol-2(3H)-yl)benzamide] |  | 9700 ± 1400 | 8000 ± 1900 |  |  |  | 
23 | Cc1cccc(C(=O)n2[se]c3ccccc3c2=O)c1 [4n, 2-(3-Methylbenzoyl)benzo[d][1,2]selenazol-3(2H)-one] | 10900 ± 2100 | 7000 ± 1300 |  |  |  | no cytotoxicity | 
